Reference: patent US20260182575A1, “MOLECULES HAVING PESTICIDAL UTILITY AND INTERMEDIATES AND PROCESSES RELATED THERETO” (CORTEVA AGRISCIENCE LLC, priority 2022, published 2026)
Values joined by “and” are separate entries in the source; they are usually repeats but may differ in a detail not shown here. Equal values may be shown once.

Legend:
Assay type in all cases: in vivo
[1] = tested on: Corn Earworm (Helicoverpa zea, HELIZE, CEW); assay: Bioassay 4: corn earworm, artificial diet, 128-cell tray; settings: for Average % Control AI: AI alone; for Average % Control F1: F1 alone
Procedure, shortened: (§1)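 Test solutions (0.0000004–0.04% w/v, i.e. 0.00005–5 μg/cm² on diet) were pipetted onto artificial lepidopteran diet and one 2nd-instar larva was placed per cell, 8 replicates per species, held at ~26° C. Live larvae were counted after 5 days; percent control used Abbott's correction against a solvent check.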

[2] = tested on: Western Flower Thrips (Frankliniella occidentalis, FRANOC, WFT); assay: Bioassay 3: western flower thrips, cotton leaf disc dip; settings: for Average % Control AI: 3 days; for Average % Control F1: F1 alone, 3 days after treatment
[3] = tested on: Fall Armyworm (Spodoptera frugiperda, LAPHFR, FAW); assay: Bioassay 4: fall armyworm, artificial diet, 128-cell tray; settings: AI alone
Procedure, shortened: as §1

[4] = AI alone at 1:1 rate to F1 3.125 (10^-6 Wt %)
[5] = AI alone at 1:1 rate to F1 0.78 (10^-6 Wt %)

Compound | Average % Control AI ([1]; 0.000004 wt %) | Average % Control AI ([1]; 0.00004 wt %) | Average % Control AI [2, 4] | Average % Control AI ([3]; 0.000004 wt %) | Average % Control AI ([3]; 0.00004 wt %) | other results
Cc1c(COC(=O)[C@@H]2[C@H](/C=C(\Cl)C(F)(F)F)C2(C)C)cccc1-c1ccccc1 (racemic) [Bifenthrin] | 0.0% | 0.0% | 11.5% | 12.5% | 12.5% | 
C[C@]1(COC(=O)C2CC2)[C@@H]2C[C@H](O)[C@@]3(C)Oc4cc(-c5cccnc5)oc(=O)c4[C@H](O)[C@@H]3[C@@]2(C)CC[C@@H]1OC(=O)C1CC1 [Afidopyropen] | 0.0% | 0.0% |  | 0.0% | 0.0% | Average % Control AI ([2]; AI alone at 1:1 rate to F1 12.5 (10^-6 Wt %)): 0.0%; Average % Control AI ([2]; AI alone at 1:1 rate to F1 50 (10^-6 Wt %)): 5.7%
Cc1ccc(COCC(F)(F)F)c(N2C(=O)CS/C2=N\C(=O)Nc2ccc(-c3ncn(-c4ccc(OC(F)(F)F)cc4)n3)cc2F)c1 [F1] |  |  |  |  |  | Average % Control F1 ([1]; 0.0000004 wt %): 0.0%; Average % Control F1 ([1]; 0.00004 wt %): 75.0%; Average % Control F1 ([2]; Wt % F1 (10^-6) 0.195, cotton leaf disc): 0.0% and 5.7%; Average % Control F1 ([2]; Wt % F1 (10^-6) 12.5, cotton leaf disc): 46.0%; Average % Control F1 ([2]; Wt % F1 (10^-6) 50, cotton leaf disc): 79.3%
CON=CNC(=O)c1ccc(C2=NOC(c3cc(Cl)cc(Cl)c3)(C(F)(F)F)C2)cc1C (centres unmarked) [Fluxametamide] | 0.0% | 0.0% | 4.8% | 12.5% |  | 
COC(=O)N(C(=O)N1CO[C@@]2(C(=O)OC)Cc3cc(Cl)ccc3C2=N1)c1ccc(OC(F)(F)F)cc1 [Indoxacarb] | 0.0% | 0.0% |  | 0.0% | 0.0% | Average % Control AI ([1]; 0.0004 wt %): 0.0%
CC1=NNC(=O)N(/N=C/c2cccnc2)C1 [Pymetrozine] | 0.0% | 0.0% | 21.4% | 0.0% | 0.0% | 
CN1COCN(Cc2cnc(Cl)s2)/C1=N\[N+](=O)[O-] [Thiamethoxam] | 0.0% | 0.0% | 6.7% | 0.0% |  | Average % Control AI ([2]; AI alone at 1:1 rate to F1 0.195 (10^-6 Wt %)): 20.0%; Average % Control AI [2, 5]: 20.0%
Chlorfenapyr | 0.0% | 12.5% |  | 0.0% | 37.5% | Average % Control AI [2, 5]: 16.7%
